pIC50: −log10 of the molar value. Several values for one entry are separate records, joined by “and”; a condition that tells them apart may be missing. Identical values can stand only once.
Key:
CYP17A1 [1] = molecular target: T1, CYP17A1 (Homo sapiens, UniProt P05093); assay: CYP17A1 17α-hydroxylase activity assay in NCI-H295R cells ([14C]-progesterone, TLC); type: cell-based; details: 4 h, DMSO = 100, read-out: CYP17A1 Hydroxylase activity, Mean (percentage of activity remaining relative to the control)
T1 construct: immortalised human adrenal cells expressing CYP17A1 and other steroidogenic enzymes; endogenous in cells; host or cells: NCI-H295R (human adrenal cells)
T1 sequence (P05093 1-508): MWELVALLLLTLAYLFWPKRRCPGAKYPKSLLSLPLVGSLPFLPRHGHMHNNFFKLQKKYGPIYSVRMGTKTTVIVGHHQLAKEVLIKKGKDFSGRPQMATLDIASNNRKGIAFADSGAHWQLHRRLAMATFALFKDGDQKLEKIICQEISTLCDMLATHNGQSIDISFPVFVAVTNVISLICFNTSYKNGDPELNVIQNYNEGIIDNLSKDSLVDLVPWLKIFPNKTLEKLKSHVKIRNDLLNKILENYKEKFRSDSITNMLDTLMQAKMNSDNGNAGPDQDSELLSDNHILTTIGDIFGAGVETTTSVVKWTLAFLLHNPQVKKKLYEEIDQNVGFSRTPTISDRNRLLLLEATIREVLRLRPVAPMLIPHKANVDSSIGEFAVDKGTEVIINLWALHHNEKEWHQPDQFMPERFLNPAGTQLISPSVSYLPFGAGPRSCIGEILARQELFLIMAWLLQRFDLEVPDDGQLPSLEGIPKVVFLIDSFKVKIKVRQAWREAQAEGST
Description: (§1) Human adrenal NCI-H295R cells are an established model for assay of CYP17A1 activities. The NCI-H295R cells were seeded in 12-well plates at 500 000 cells per well and incubated overnight. On the following day, 10 µM of test compounds were added to the wells with fresh medium and incubated for 4 h. Abiraterone was used as a reference, and DMSO was included as a control. For assessing CYP17A1 hydroxylase activity, cells were treated with [^14C]-Progesterone at 10 000 cpm/1 µM per well. Trilostane was added prior to the test compounds and substrate to inhibit 3β-hydroxysteroid dehydrogenase activity so that a clean assay of only CYP17A1 activity could be performed[20]^,[27]^,[28]. Radiolabeled steroids were extracted from the media using a mixture of ethyl acetate and isooctane (1:1 v/v) and separated by Thin Layer Chromatography (TLC) on silica gel-coated aluminium plates (Supelco® Analytics, Sigma-Aldrich Chemie GmbH, Taufkirchen, Germany). TLC spots were visualised on a phosphor screen and detected by autoradiography using a Typhoon™ FLA-7000 PhosphorImager (GE Healthcare, Uppsala, Sweden). Radioactivity was quantified with ImageQuant™ TL analysis software (GE Healthcare Europe GmbH, Freiburg, Germany), and enzyme activity was expressed as the percentage of radioactivity incorporated into the product relative to the total radioactivity. For CYP17A1 lyase activity, cells were exposed to 50 000 cpm/1 µM [21-^3H]-17α-hydroxypregnenolone per well under similar conditions. The tritiated water release assay was used to measure the conversion of 17OH-Pregnenolone to DHEA. Steroids in the media were precipitated using a 5% activated charcoal/0.5% dextran solution. Enzyme activity was evaluated based on the water-soluble tritiated by-product formed in equimolar amounts with DHEA, with radioactivity in the aqueous phase quantified by liquid scintillation counting (MicroBeta2® Plate Counter, PerkinElmer Inc., Waltham, MA, USA). Percent inhibition was calculated relative to control samples.

CYP17A1 [2] = molecular target: T1, CYP17A1; assay: CYP17A1 17,20-lyase activity assay in NCI-H295R cells (tritiated water release); type: cell-based; details: 4 h, DMSO = 100, read-out: CYP17A1 Lyase activity, Mean (percentage of activity remaining relative to the control)
Description: as §1

LNCaP cells = assay: Alamar blue (resazurin) cell viability, LNCaP; type: cell-based, human; details: 10 µM; for Cytotoxic effect on LNCaP cells (in words): 24 and 48 h
Description: (§2) LNCaP and RWPE-1 cells were plated in 96-well plates at 10 000 cells per well and incubated overnight at 37 °C with 5% CO2. VCaP cells were plated at 12 000 cells per well under the same conditions. After 24 h, the medium was replaced with fresh medium containing the compounds or abiraterone at a final concentration of 10 µM. Cells were incubated for an additional 24 and 48 h. Cell viability was measured using the Alamar Blue assay. Post-incubation, 0.05 mg/mL Alamar Blue solution in phosphate-buffered saline (PBS) was added to each well. The plates were incubated in the dark at 37 °C for 4 h, and fluorescence was measured at an excitation wavelength of 550 nm and an emission wavelength of 590 nm. Cell viability was calculated relative to control sample treated with DMSO. All experiments were conducted in triplicate.

VCaP cells = assay: Alamar blue (resazurin) cell viability, VCaP; type: cell-based, human; details: for viability at 10 µM: Homo sapiens, VCaP, 24 h
Description: as §2

CYP17A1 [3] = molecular target: T1, CYP17A1; assay: CYP17A1 17,20-lyase activity assay in NCI-H295R cells (tritiated water release); type: cell-based; details: dose-response, read-out: IC50, inhibition of 17,20-lyase activity
CYP17A1 [4] = molecular target: T1, CYP17A1; assay: CYP17A1 activity calculated as ratios of steroid products to substrates (LC-MS); type: cell-based; details: normalised to DMSO-treated cells (100%), NCI-H295R
Description: (§3) Steroid quantification was performed using Liquid Chromatography–Mass Spectrometry (LC-MS), following established protocols to study effect of compounds on adrenal steroidogenesis. Human adrenal NCI-H295R cells were seeded in 12-well plates at 500 000 cells per well and treated with fresh growth medium containing the test compounds for 4 h. Subsequently, 1 µM pregnenolone was added and incubated for an additional 4 h. Steroids were extracted from 500 µL aliquots of cell media, separated, and quantified according to the referenced methodology.
To provide deeper insights into CYP17A1 inhibition, the enzyme activity was calculated using ratios of steroid products to substrates, focusing on dual activities of CYP17A1 (Figure 4(B)).

DU-145 cells = assay: Scratch (wound healing) assay; type: cell-based, human; details: DU-145, 10 µM; for Wound area, Mean (area remaining open): 24 h, DMSO 170.5; for Effect on cell migration (in words): after 24 h
Description: Human prostate cancer DU-145 cells show strong cell proliferation and therefore, are an established model for assay of antiproliferative effects of test compounds. DU-145 cells were plated in 24-well plates at 50 000 cells per well and grown until they reached 85% confluence. To inhibit cell proliferation, cells were treated with 5 µg/mL mitomycin for 2 h. A wound was created using a 10 µL pipette tip. The cells were then exposed to drugs at a concentration of 10 µM, while control wells received DMSO. Wound closure was observed and photographed using an optical microscope after 24 h. Images were analysed using ImageJ software (version 1.54j).

[5] = test system: adrenal steroidogenesis in NCI-H295R cells; assay: Steroid profiling by LC-MS in NCI-H295R cells; type: cell-based, human; details: for Androsterone, Mean / Testosterone, Mean / Progesterone, Mean / Androstendione, Mean / 17a-Hydroxyprogesterone, Mean / DHEA, Mean / 11-Deoxycortisol, Mean / 11-Deoxycorticosterone, Mean / Pregnenolone, Mean / Cortisone, Mean / DHEA-S, Mean / Dihydrotestosterone, Mean: compounds at 10 µM; for Androsterone, Mean / Testosterone, Mean / Progesterone, Mean / Androstendione, Mean / 17a-Hydroxyprogesterone, Mean / DHEA, Mean / 11-Deoxycortisol, Mean / 11-Deoxycorticosterone, Mean / Pregnenolone, Mean: 1 µM pregnenolone; for Androsterone, Mean / Cortisone, Mean / DHEA-S, Mean / Dihydrotestosterone, Mean: DMSO 0; for Testosterone, Mean: DMSO 0.4785; for Progesterone, Mean: DMSO 4.814; for Androstendione, Mean: DMSO 7.577; for 17a-Hydroxyprogesterone, Mean: DMSO 9.967; for DHEA, Mean: DMSO 15.119; for 11-Deoxycortisol, Mean: DMSO 26.594; for 11-Deoxycorticosterone, Mean: DMSO 28.1555; for Pregnenolone, Mean: DMSO 2043.56; for Cortisone, Mean / DHEA-S, Mean / Dihydrotestosterone, Mean: not detected within the experimental timeframe
Description: as §3

[6] = Alamar blue (resazurin) cell viability, RWPE-1; type: cell-based; details: human, RWPE-1 cells, 48 h, of the control
Description: as §2

| SMILES | remaining activity at 10 µM (CYP17A1 [1]) [%] | remaining activity at 10 µM (CYP17A1 [2]) [%] | Cytotoxic effect on LNCaP cells (in words) (LNCaP cells) | viability at 10 µM (VCaP cells) [%] | pIC50 (CYP17A1 [3]) | 17α-Hydroxylase activity (ratios of steroid products to substrates) (CYP17A1 [4]) [%] | Wound area, Mean (area remaining open) (DU-145 cells) [Pixels^2] | Effect on cell migration (in words) (DU-145 cells) | Androsterone, Mean [5] [nmol/L] | Testosterone, Mean [5] [nmol/L] | Progesterone, Mean [5] [nmol/L] | Androstendione, Mean [5] [nmol/L] | 17a-Hydroxyprogesterone, Mean [5] [nmol/L] | DHEA, Mean [5] | 11-Deoxycortisol, Mean [5] | 11-Deoxycorticosterone, Mean [5] | Pregnenolone, Mean [5] [nmol/L] | Cortisone, Mean [5] [nmol/L] | DHEA-S, Mean [5] [nmol/L] | Dihydrotestosterone, Mean [5] [nmol/L] | further results |
| --- | --- | --- | --- | --- | --- | --- | --- | --- | --- | --- | --- | --- | --- | --- | --- | --- | --- | --- | --- | --- | --- |
| N#Cc1c(-c2ccccc2)cc(-c2ccncc2)c(C#N)c1N [Compound 6, 3-Amino-5-(pyridin-4-yl)-[1,1′-biphenyl]-2,4-dicarbonitrile] | 53 | 57.4 | marked reduction in viability | < 50 |  |  |  |  |  |  |  |  |  |  |  |  |  |  |  |  |  |
| N#Cc1c(-c2ccncc2)cc(-c2ccc3[nH]ccc3c2)nc1N [Compound 5, 2-Amino-6-(1H-indol-5-yl)-[4,4′-bipyridine]-3-carbonitrile] | 20 | 39.7 | marked reduction in viability | < 50 | 7.60 | 1.7 | 1916 | less pronounced effect comparable to that exerted by abiraterone | 0.009 | 0.5215 | 39.9815 | 1.4095 | 1.3865 | 0.748 nmol/L | 4.0415 nmol/L | 5.503 nmol/L | 2578.994 | 0 | 0 | 0 |  |
| CCCn1nnc2cc(-c3cc(-c4ccncc4)c(C#N)c(N)n3)ccc21 [Compound 1, 2-Amino-6–(1-propyl-1H-benzo[d][1,2,3]triazol-5-yl)-[4,4′-bipyridine]-3-carbonitrile] | 45 | 46.3 |  |  | 8.00 | 1.8 | 731.5 | less pronounced effect comparable to that exerted by abiraterone | 0 | 0.4455 | 27.8235 | 1.564 | 0.977 | 1.1015 nmol/L | 5.22 nmol/L | 41.58 nmol/L and 41.577 nmol/L | 2228.179 | 0 | 0 | 0 | Combined 17α-hydroxylase and 17,20-lyase activity (ratios of steroid products to substrates) (CYP17A1 [4]): 6.6% |
| N#Cc1c(-c2ccncc2)cc(-c2ccc3[nH]ccc3c2)c(C#N)c1N [Compound 11, 2-Amino-4-(1H-indol-5-yl)-6-(pyridin-4-yl)isophthalonitrile] | 10 | 49.2 | did not exhibit high cytotoxic effects |  | 8.40 | 1 | 8703 | significant inhibition of cell migration | 1.176 | 0.4775 | 67.3265 | 1.3725 | 1.3575 | 1.36 nmol/L and 1.3585 nmol/L | 3.942 nmol/L | 3.8565 nmol/L | 2465.505 | 0 | 0 | 0 | Reduction of DHEA level ([5]; vs DMSO control): 11 fold; Cytotoxic effect on VCaP cells (in words) (VCaP cells; 10 µM, 24 and 48 h): did not exhibit high cytotoxic effects |
| c1cncc(-c2cccc(-c3ccc4[nH]ccc4c3)c2)c1 [Compound 12, 5-(3-(Pyridin-3-yl)phenyl)-1H-indole] | 46 | 48.7 |  |  |  |  |  |  |  |  |  |  |  |  |  |  |  |  |  |  | viability at 48 h, 10 µM [6]: 85% |
| c1cc(-c2ccncc2)cc(-c2ccc3[nH]ccc3c2)c1 [Compound 14, 5-(3-(Pyridin-4-yl)phenyl)-1H-indole] | 35 | 23.9 |  |  | 7.59 | 1.5 | 7074 | significant inhibition of cell migration | 0.61 | 0.4105 | 51.7765 | 1.359 | 1.6245 | 0.6075 nmol/L | 3.75 nmol/L and 3.7485 nmol/L | 3.518 nmol/L | 2377.463 | 0 | 0 | 0 | Effect on LNCaP cell viability (in words) (LNCaP cells; 48 h): strong effect |

Reference: publication PMC11834790, “Pyridine indole hybrids as novel potent CYP17A1 inhibitors” (Journal of Enzyme Inhibition and Medicinal Chemistry, 2025)
